Reference: patent publication US20160045513A1, “ISOXAZOLE COMPOUND FOR THE TREATMENT OF CANCER” (Novartis AG, priority 2007, published 2016)

Assays:
BT-474 xenograft = assay: antitumor effect in the human breast cancer model BT-474; type: in vivo, mouse; settings: for T/C (%) / ΔTumor volume (mm^3): qw, i.v., 21 days treatment; for ΔTumor volume (mm^3): mean ±SEM
Protocol: The estrogen receptor positive cell line BT-474 was initially isolated from a human breast ductal carcinoma established from a solid, invasive ductal carcinoma of the breast obtained from a person (ATCC number HTB-20). The cells are grown in DMEM high glucose (4.5 g/l) supplemented with 10% FCS, […] and 1% sodium pyruvate. In preparation for cell inoculation, each mouse is subcutaneously implanted on the upper dorsal side with a 17β-Estradiol pellet (25 μg/day; 90 day release) using a trocar needle. BT-474 cells (5×10̂6) are injected in 200 μl Matrigel:HBSS (1:1 vol) (BD MatrigelTM Basement Membrane Matrix). The injection site is subcutaneously in the right flank. […] Tumor growth is monitored at regular intervals. The xenograft tumor sizes are measured manually with calipers and the tumor volume is estimated using the formula: (W×L×H×π/6), where width (W), height (H) and length (L) are the three largest diameters. Results are presented as mean ±SEM. Tumor data are analyzed by ANOVA with post hoc Dunnet's test for comparison of treatment versus control group. As a measure of efficacy the % T/C value is calculated at the end of the experiment according to: (Δtumor volumetreated/Δtumor volumecontrol)*100 where Δtumor volumes represent the mean tumor volume on the evaluation day minus the mean tumor volume at the start of the experiment. The antitumor effect of AUY922 is evaluated in the BT-474 xenograft model. In this study, the treatment period is 21 days. Each group consists of eight tumor bearing animals. At the end of the study, the tumor sizes in the treatment groups are compared to those of the vehicle treated groups and the effect is expressed as % T/C.

LXFA 526 = assay: clonogenic assay, human tumor xenografts in vitro; type: cell-based; settings: Lung, non-small cell, LXFA 526, Adeno carcinoma, soft agar, read-out: IC50 (nM), colony formation
Protocol: (§1) The anticancer activity of 5-(2,4-Dihydroxy-5-isopropyl-phenyl)-4-(4-morpholin-4-ylmethyl-phenyl)-isoxazole-3-carboxylic acid ethylamide is evaluated in 30 human tumor xenografts in vitro using a clonogenic assay. In this assay, human cells derived from cancer patients are evaluated for the capacity of 5-(2,4-Dihydroxy-5-isopropyl-phenyl)-4-(4-morpholin-4-ylmethyl-phenyl)-isoxazole-3-carboxylic acid ethylamide to inhibit the formation of 3 dimensional colonies. […] The tumor xenografts which have never been cultured in cell culture plastic dishes are isolated from nude mice. Tumor cell suspensions are prepared and incubated in 24 well plates containing layers of soft agar. Under these conditions a special subpopulation of cells selectively grows to colonies. 5-(2,4-Dihydroxy-5-isopropyl-phenyl)-4-(4-morpholin-4-ylmethyl-phenyl)-isoxazole-3-carboxylic acid ethylamide was tested in 6 concentrations up to […]. The tumor test panel comprises 1 to 6 models of 10 different human tumor or cancer types, which were bladder cancer, colon, liver, non small cell lung (adeno, squamous epithelium and large cell), small cell lung, mammary, ovary, pancreatic, melanoma and pleuramesothelioma. Antitumor effects are recorded as inhibition of colony formation in relation to untreated controls. Further information on the method has been published (Burger et al., 2004; Fiebig et al., 2004; Smith et al., 2005).
(§2) The cells are continually exposed to 5-(2,4-Dihydroxy-5-isopropyl-phenyl)-4-(4-morpholin-4-ylmethyl-phenyl)-isoxazole-3-carboxylic acid ethylamide and colony formation is determined.

LXFS 615 = assay: clonogenic assay, human tumor xenografts in vitro; type: cell-based; settings: Lung, small cell, LXFS 615, Small cell lung carcinoma, soft agar, read-out: IC50 (nM), colony formation
Protocol: as §1, §2

In the case of `CCNC(=O)c1noc(-c2cc(C(C)C)c(O)cc2O)c1-c1ccc(CN2CCOCC2)cc1` [AUY922, 5-(2,4-Dihydroxy-5-isopropyl-phenyl)-4-(4-morpholin-4-ylmethyl-phenyl)-isoxazole-3-carboxylic acid ethylamide], the “T/C (%)” value (BT-474 xenograft; 8.3 mg/kg) is reported as 43%, the “ΔTumor volume (mm^3)” value (BT-474 xenograft; 8.3 mg/kg) is reported as 229 ± 73 mm^3 and the “T/C (%)” value (BT-474 xenograft; 17 mg/kg) is reported as 9%. The “ΔTumor volume (mm^3)” value (BT-474 xenograft; 17 mg/kg, *P < 0.05) was 46 ± 27* mm^3, the “T/C (%)” value (BT-474 xenograft; 25 mg/kg) was 3% and the “ΔTumor volume (mm^3)” value (BT-474 xenograft; 25 mg/kg, *P < 0.05) was 15 ± 23* mm^3. The “reduction of tumor sizes versus vehicle” value (BT-474 xenograft; once per week at 17-25 mg/kg) was “Statistically significant reduction of tumor sizes”, the IC50 (LXFA 526) was 5 nM and the IC50 (LXFS 615) was 30 nM.
